Experimental data as given in article PMC7101335, “Aryl-alkyl-lysines: Novel agents for treatment of C. difficile infection” (Scientific Reports, 2020).
≈ marks a conversion by molar mass, not a printed value. Like-named read-outs stand apart in the source and are kept apart here.

Columns and labels:
Clostridium difficile = experiment: Broth microdilution MIC against Clostridium difficile strains; type: cell-based; conditions: Clostridioides difficile
Procedure: The broth microdilution assay was utilized following the Clinical and Laboratory Standards Institute (CLSI) guidelines with slight modifications. Briefly, C. difficile strains were grown on anaerobic blood agar plates (Becton Dickinson, BD) and suspended in brain heart infusion supplemented broth (Brain heart infusion medium, BD, supplemented with yeast extract, L-cysteine, Vitamin K1 and Hemin, Sigma) to achieve a bacterial concentration of ~10^5 CFU/ml. The bacterial suspension was seeded in 96-well plates containing drugs/compounds, in duplicate, at the required concentration. Plates were then incubated at 37 °C anaerobically for 48 hours. MICs reported are the lowest concentration of each agent that inhibited the visual growth of bacteria.

E. faecalis = experiment: Broth microdilution MIC against E. faecalis strains; type: cell-based; conditions: Enterococcus faecalis, read-out: Minimum inhibitory concentration
E. faecium = experiment: Broth microdilution MIC against E. faecium strains; type: cell-based; conditions: Enterococcus faecium, read-out: Minimum inhibitory concentration
[1] = test system: human ileocecal colorectal adenocarcinoma cell line (HRT-18); experiment: Cytotoxicity, MTS assay, HRT-18 cells; type: cell-based; conditions: 32 µg mL^−1, 2 hours
Procedure: Briefly, ~2 × 10^4 cells suspended in 100 µL of RPMI-1640 supplemented with 10% horse serum were seeded in a 96-well plate and incubated at 37 °C with 5% CO2. The cells were cultured for 24 hours until reaching ~90% confluency. The cells were further incubated with the aforementioned concentrations of the compounds for 2 hours. Afterwards, culture media were discarded and the cells in each well were washed with PBS and 100 µL of cell culture media were added prior to addition of the assay reagent MTS 3-(4,5-dimethylthiazol-2-yl)-5-(3-carboxymethoxyphenyl)-2-(4-sulfophenyl)-2H-tetrazolium) (Promega). The plates were incubated for 4 hours at 37 °C in a humidified 5% CO2 atmosphere. The absorbance was recorded at 490 nm and the corrected absorbance readings (actual absorbance readings for each treatment subtracted from background absorbance) were taken using a kinetic ELISA microplate reader (SpectraMax i3x, Molecular Devices, Sunnyvale, CA, USA). The quantity of viable cells after treatment with each compound was expressed as a percentage of the control, DMSO. Asterisk (*) denotes a significant difference from the DMSO-treated cells using 2-way analysis of variance (ANOVA) followed by Dunnett’s pairwise comparison.

[2] = Caco-2 bidirectional permeability assay; type: in vitro ADME, human; conditions: human, Caco-2, two hours
Procedure: (§1) The Caco-2 bidirectional permeability assay was conducted as described in previous reports[29],[30],[41],[42]. The Caco-2 cell line is similar to human enterocytes and expresses P-glycoprotein and other relevant metabolic enzymes that affect absorption of orally-administered xenobiotics across the intestinal mucosa[34],[43],[44]. Caco-2 cells were grown in tissue culture flasks, trypsinized (by rinsing cells with phosphate-buffered saline and then treating with trypsin-EDTA for 5–10 minutes at 37 °C with 5% CO2 until cells detached), suspended in Dulbecco’s Modified Eagle Medium with 10% fetal bovine serum, 1% nonessential amino acids and penicillin-streptomycin, and then seeded onto wells of a Millipore 96-well Caco-2 plate. Cells were cultured at 37 °C with 5% CO2 until confluent (approximately three weeks) and media was changed at relevant time points. For Apical to Basolateral (A → B) permeability, the test article was added to the apical (A) compartment and the amount of permeation (Papp, as calculated below) to the basolateral (B) compartment was determined; for Basolateral to Apical (B → A) permeability, the test article was added to the B compartment and the amount of permeation to the A compartment was determined. […] Caco-2 cells were incubated with these buffers for two hours, and the receiver side buffer was removed for analysis by LC/MS/MS. To verify the tight junctions and integrity of Caco-2 cell monolayers, aliquots of the cell buffers were analyzed by fluorescence (Lucifer yellow transport ≤ 2%). Any deviations from control values are reported. Data are expressed as permeability (Papp) = (dQ/dt)/(C0A) where dQ/dt is the rate of permeation, C0 is the initial concentration of test agent, and A is the area of the monolayer.

Caco-2 monolayer = experiment: Caco-2 bidirectional permeability assay; type: in vitro ADME, human; conditions: Caco-2 bidirectional
Procedure: as §1

[3] = test system: vancomycin-resistant and vancomycin-susceptible strains of Enterococcus; experiment: Broth microdilution MIC against Enterococcus strains (E. faecalis and E. faecium, summary in text); type: cell-based; conditions: all E. faecalis and E. faecium strains tested, vancomycin-resistant and -sensitive
human erythrocytes = test system: human erythrocytes; parameters: method as in PMID 24479371; conditions: concentration at which 50% of human erythrocytes are lysed; cited from earlier work
[4] = C. difficile Isolate 1 (NR-13427), read-out: Minimum inhibitory concentration
[5] = C. difficile Isolate 2 (NR-13428), read-out: Minimum inhibitory concentration
[6] = C. difficile Isolate 4 (NR-13430), read-out: Minimum inhibitory concentration
[7] = C. difficile Isolate 6 (NR-13432), read-out: Minimum inhibitory concentration
[8] = C. difficile Isolate 9 (NR-13435), read-out: Minimum inhibitory concentration
[9] = C. difficile Isolate 10 (NR-13436), read-out: Minimum inhibitory concentration
[10] = C. difficile P2 (NR-32883), read-out: Minimum inhibitory concentration
[11] = C. difficile P4 (NR-32889), read-out: Minimum inhibitory concentration
[12] = C. difficile P8 (NR-32888), read-out: Minimum inhibitory concentration
[13] = C. difficile P13 (NR-32891), read-out: Minimum inhibitory concentration
[14] = C. difficile P20 (NR-32896), read-out: Minimum inhibitory concentration
[15] = C. difficile P21 (NR-32897), read-out: Minimum inhibitory concentration
[16] = C. difficile P29 (NR-32903), read-out: Minimum inhibitory concentration
[17] = across all tested strains of C. difficile
[18] = E. faecalis SF28073 (vancomycin-resistant)
[19] = E. faecium E417 (vancomycin-resistant)

Question: Which MIC (Clostridium difficile; [4]) does the source give for `CCCCCCCCCCN(Cc1cccc2ccccc12)C(=O)[C@@H](N)CCCCN` [NCK-10] here?
Answer: 2 µg/mL (≈ 4.7 µM)

Question: What about the MIC (Clostridium difficile; [5]) of the same molecule?
Answer: 1 µg/mL (≈ 2.35 µM)

Question: And the MIC (Clostridium difficile; [6])?
Answer: 2 µg/mL (≈ 4.7 µM)

Question: And the MIC (Clostridium difficile; [7])?
Answer: 1 µg/mL (≈ 2.35 µM)

Question: What about the MIC (Clostridium difficile; [8]) of the same molecule?
Answer: 1 µg/mL (≈ 2.35 µM)

Question: What about the MIC (Clostridium difficile; [9]) of the same molecule?
Answer: 1 µg/mL (≈ 2.35 µM)

Question: And the MIC (Clostridium difficile; [10])?
Answer: 1 µg/mL (≈ 2.35 µM)

Question: What about the MIC (Clostridium difficile; [11]) of the same molecule?
Answer: 2 µg/mL (≈ 4.7 µM)

Question: What about the MIC (Clostridium difficile; [12]) of the same molecule?
Answer: 1 µg/mL (≈ 2.35 µM)

Question: And the MIC (Clostridium difficile; [13])?
Answer: 2 µg/mL (≈ 4.7 µM)

Question: And the MIC (Clostridium difficile; [14])?
Answer: 1 µg/mL (≈ 2.35 µM)

Question: What about the MIC (Clostridium difficile; [15]) of the same molecule?
Answer: 1 µg/mL (≈ 2.35 µM)

Question: What about the MIC (Clostridium difficile; [16]) of the same molecule?
Answer: 1 µg/mL (≈ 2.35 µM)

Question: And the MIC (Clostridium difficile; C. difficile strains P8, P13 and Isolate 10)?
Answer: 1 to 2 µg/mL (≈ 2.35 to 4.7 µM)

Question: What about the MIC (Clostridium difficile; [17]) of the same molecule?
Answer: 0.5 to 2 µg/mL (≈ 1.17 to 4.7 µM)

Question: What about the MIC (Clostridium difficile; most strains of C. difficile tested, read-out: MIC) of the same molecule?
Answer: ≤ 1 µg/mL

Question: What about the MIC (Clostridium difficile; read-out: Minimum inhibitory concentration, C. difficile Isolate 5 (NR-13431)) of the same molecule?
Answer: ≤ 0.5 µg/mL

Question: And the MIC (Clostridium difficile; read-out: Minimum inhibitory concentration, C. difficile P15 (NR-32892))?
Answer: ≤ 0.5 µg/mL

Question: What about the MIC (Clostridium difficile; the rest of the C. difficile strains) of the same molecule?
Answer: 1 µg/mL (≈ 2.35 µM)

Question: What about the MIC (E. faecalis; E. faecalis B3196) of the same molecule?
Answer: 2 µg/mL (≈ 4.7 µM)

Question: What about the MIC (E. faecalis; E. faecalis B3286) of the same molecule?
Answer: 2 µg/mL (≈ 4.7 µM)

Question: And the MIC (E. faecalis; E. faecalis B3336)?
Answer: 2 µg/mL (≈ 4.7 µM)

Question: And the MIC (E. faecalis; E. faecalis SF24397)?
Answer: 2 µg/mL (≈ 4.7 µM)

Question: And the MIC (E. faecalis; [18])?
Answer: 2 µg/mL (≈ 4.7 µM)

Question: What about the MIC (E. faecium; [19]) of the same molecule?
Answer: < 1 µg/mL

Question: What about the MIC (E. faecium; E. faecium E1071) of the same molecule?
Answer: 2 µg/mL (≈ 4.7 µM)

Question: And the MIC (E. faecium; E. faecium UAA714)?
Answer: 2 µg/mL (≈ 4.7 µM)

Question: What about the cells survived ([1]; HRT-18 cells, relative to DMSO) of the same molecule?
Answer: 60%

Question: What about the Papp A→B at 2 h ([2]; apical (pH 6.5) to basolateral (pH 7.4)) of the same molecule?
Answer: < 0.01 ×10⁻⁶ cm/s

Question: What about the Papp B→A at 2 h ([2]; basolateral to apical) of the same molecule?
Answer: 3.26 ×10⁻⁶ cm/s

Question: What about the “Notes (permeability class)” value (Caco-2 monolayer) of the same molecule?
Answer: Limited permeability

Question: And the MIC [3]?
Answer: ≤ 2 µg/mL

Question: And the “hemolytic concentration 50 (HC50)” value (human erythrocytes)?
Answer: 95 µg/mL

Question: For `CCCCCCCCN(Cc1cccc2ccccc12)C(=O)[C@@H](N)CCCCN` [NCK-8], which MIC (Clostridium difficile; [4]) is on record?
Answer: 8 µg/mL (≈ 20.1 µM)

Question: And the MIC (Clostridium difficile; [5])?
Answer: 8 µg/mL (≈ 20.1 µM)

Question: And the MIC (Clostridium difficile; [6])?
Answer: 8 µg/mL (≈ 20.1 µM)

Question: And the MIC (Clostridium difficile; C. difficile Isolate 5 (NR-13431), read-out: Minimum inhibitory concentration)?
Answer: 2 µg/mL (≈ 5.03 µM)

Question: And the MIC (Clostridium difficile; [7])?
Answer: 8 µg/mL (≈ 20.1 µM)

Question: What about the MIC (Clostridium difficile; [8]) of the same molecule?
Answer: 4 µg/mL (≈ 10.1 µM)

Question: What about the MIC (Clostridium difficile; [9]) of the same molecule?
Answer: 8 µg/mL (≈ 20.1 µM)

Question: And the MIC (Clostridium difficile; [10])?
Answer: 4 µg/mL (≈ 10.1 µM)

Question: And the MIC (Clostridium difficile; [11])?
Answer: 8 µg/mL (≈ 20.1 µM)

Question: And the MIC (Clostridium difficile; [12])?
Answer: 8 µg/mL (≈ 20.1 µM)

Question: And the MIC (Clostridium difficile; [13])?
Answer: 8 µg/mL (≈ 20.1 µM)

Question: And the MIC (Clostridium difficile; C. difficile P15 (NR-32892), read-out: Minimum inhibitory concentration)?
Answer: 8 µg/mL (≈ 20.1 µM)

Question: And the MIC (Clostridium difficile; [14])?
Answer: 8 µg/mL (≈ 20.1 µM)

Question: What about the MIC (Clostridium difficile; [15]) of the same molecule?
Answer: 4 µg/mL (≈ 10.1 µM)

Question: What about the MIC (Clostridium difficile; [16]) of the same molecule?
Answer: 8 µg/mL (≈ 20.1 µM)

Question: What about the MIC (Clostridium difficile; [17]) of the same molecule?
Answer: 2 to 8 µg/mL (≈ 5.03 to 20.1 µM)

Question: What about the MIC (E. faecalis; E. faecalis B3196) of the same molecule?
Answer: 16 µg/mL (≈ 40.2 µM)

Question: And the MIC (E. faecalis; E. faecalis B3286)?
Answer: 32 µg/mL (≈ 80.5 µM)

Question: And the MIC (E. faecalis; E. faecalis B3336)?
Answer: 16 µg/mL (≈ 40.2 µM)

Question: And the MIC (E. faecalis; E. faecalis SF24397)?
Answer: 16 µg/mL (≈ 40.2 µM)

Question: And the MIC (E. faecalis; [18])?
Answer: 16 µg/mL (≈ 40.2 µM)

Question: And the MIC (E. faecium; [19])?
Answer: 8 µg/mL (≈ 20.1 µM)

Question: What about the MIC (E. faecium; E. faecium E1071) of the same molecule?
Answer: 16 µg/mL (≈ 40.2 µM)

Question: And the MIC (E. faecium; E. faecium UAA714)?
Answer: 16 µg/mL (≈ 40.2 µM)

Question: What about the “toxicity to HRT-18 cells” value [1] of the same molecule?
Answer: survived

Question: And the MIC [3]?
Answer: 8 to 32 µg/mL (≈ 20.1 to 80.5 µM)
